Entries after “also recorded” stand apart in the source; their conditions may differ. Like-named read-outs stand apart in the source and are kept apart here.
Experiments:
Nsp9COV19 = Nsp9COV19 (Severe acute respiratory syndrome coronavirus 2, UniProt P0DTD1); parameters: species or system SARS-CoV-2; conditions: native MS; binding ratios after incubation with 50 μM of each compound
[1] = biological target: wild-type Nsp9COV19 as substrate of Nsp12COV19 NiRAN domain (Severe acute respiratory syndrome coronavirus 2, UniProt P0DTD1); format: biochemical; conditions: for Nsp9COV19 Cy3-modification, % of the signal of DMSO-only control reactions: 500 μM compound, 15 μM Nsp9COV19, 1 μM Nsp12COV19, triplicate
SARS-CoV-2 [2] = format: cell-based
Vero 81 cells = conditions: Vero 81, highest 50 μM concentration point
Vero e6 cells = conditions: Vero e6, highest 50 μM concentration point
SARS-CoV-2 [3] = conditions: cited from earlier work

Row | Structure (SMILES) | relative Nsp9COV19 binding / affinity (in words) (Nsp9COV19) | Nsp9COV19 Cy3-modification, % of the signal of DMSO-only control reactions [1] [%] | inhibition of UMPylation reaction (in words) ([1]; UMPylation assays, discussion) | viral titer following SARS-CoV-2 infection (SARS-CoV-2 [2]) | viral titer following SARS-CoV-2 infection (SARS-CoV-2 [2]; Calu-3 cells, 15 μM, after 24 h) | viral titer following SARS-CoV-2 infection (SARS-CoV-2 [2]; Calu-3 cells, 15 μM, later time points (48, 72 h)) | effect on cell proliferation (MTT) (Calu-3 cells) | effect on cell proliferation (MTT) (Vero 81 cells) | effect on cell proliferation (MTT) (Vero e6 cells) | SARS-CoV-2 replication in in vitro cellular assays (SARS-CoV-2 [3])
1 | C=C1C(=O)[C@]23[C@H](O)[C@H]1CC[C@H]2[C@@]12CO[C@@]3(O)[C@@H](O)[C@@H]1[C@](C)(COC(C)=O)CC[C@H]2O [Compound 3, Xerophilusin G] | significantly reduced binding response; also recorded: abrogated binding completely | – | – | – | – | – | – | – | – | –
2 | C=C1C(=O)[C@]23[C@H](O)[C@H]1CC[C@H]2[C@@]12CO[C@]3(O)[C@@H](O)[C@@H]1C(C)(C)CC[C@@H]2O [Compound 1, Oridonin] | – | 20 ± 6 | significant levels of inhibition | reduce viral tite at all time points | approximately fivefold reduced | not maintained at later time points | no effect on cell proliferation detected | a degree of reduced proliferation | a degree of reduced proliferation | inhibit SARS-CoV-2 replication
3 | C=C1C(=O)[C@@]23[C@H](O)C[C@@H]4C(C)(C)CC[C@H](O)[C@@]4(CO)[C@@H]2CC[C@@H]1[C@H]3O [Compound 6, Kamebakaurin] | some ability to cocomplex with Nsp9COV19 is retained | ~66 | – | – | – | – | – | – | – | –

Reference: article PMC8553373 (The Journal of Biological Chemistry, 2021)
